{"source": "patent US8551742B2", "about": "(priority 2007, dated 2013)", "key": {"[1]": {"biological_target": "Rickettsia high-affinity SAMe transport system (Rickettsia prowazekii, UniProt Q9ZE70)", "sequence (Q9ZE70 whole entry, looked up)": "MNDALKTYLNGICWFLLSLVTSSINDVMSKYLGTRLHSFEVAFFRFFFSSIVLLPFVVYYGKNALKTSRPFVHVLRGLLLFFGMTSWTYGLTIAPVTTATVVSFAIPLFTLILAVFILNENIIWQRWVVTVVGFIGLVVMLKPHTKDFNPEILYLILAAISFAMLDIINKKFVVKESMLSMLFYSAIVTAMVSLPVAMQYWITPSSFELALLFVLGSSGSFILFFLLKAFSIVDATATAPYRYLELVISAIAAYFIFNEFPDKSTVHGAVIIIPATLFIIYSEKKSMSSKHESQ", "details": "Rickettsia SAMe transporter; cited from earlier work"}, "[2]": {"biological_target": "T1, SAMe transporter from S. cerevisiae (Saccharomyces cerevisiae, UniProt Q08986)", "T1 sequence (Q08986 1-587)": "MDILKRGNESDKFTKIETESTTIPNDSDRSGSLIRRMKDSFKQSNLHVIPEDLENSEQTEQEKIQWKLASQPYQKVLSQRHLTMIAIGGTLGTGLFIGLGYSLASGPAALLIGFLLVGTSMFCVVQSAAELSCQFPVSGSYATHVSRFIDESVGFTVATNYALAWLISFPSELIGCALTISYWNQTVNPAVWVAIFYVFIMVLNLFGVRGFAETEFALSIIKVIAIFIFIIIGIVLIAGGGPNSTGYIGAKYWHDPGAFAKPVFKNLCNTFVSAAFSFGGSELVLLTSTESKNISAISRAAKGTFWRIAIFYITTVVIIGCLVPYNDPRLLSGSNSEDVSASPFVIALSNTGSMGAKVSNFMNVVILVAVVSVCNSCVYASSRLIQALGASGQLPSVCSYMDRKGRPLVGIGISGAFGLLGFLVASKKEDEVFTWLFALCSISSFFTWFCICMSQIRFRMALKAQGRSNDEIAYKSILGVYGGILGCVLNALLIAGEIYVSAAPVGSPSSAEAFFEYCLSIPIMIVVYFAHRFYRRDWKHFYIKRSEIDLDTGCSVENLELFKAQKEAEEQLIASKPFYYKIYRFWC", "details": "cited from earlier work"}, "[3]": {"system": "SAMe transporter from P. carnii", "details": "cited from earlier work"}, "[4]": {"system": "SAMe transporter from rat liver", "details": "cited from earlier work"}, "[5]": {"system": "homocysteine synthase encoded by metY from Pseudomonas aeruginosa", "experiment": "Homocysteine synthase (MetY) activity assay (Yamagata, modified, DTNB detection)"}, "physchem": {"experiment": "physchem", "details": "30 °C, water", "from_the_text": "This is close to the highest concentration achievable in the assay conditions."}, "[6]": {"details": "30° C.; cited from earlier work"}, "[7]": {"biological_target": "high affinity L-methionine transporter (metD) (Escherichia coli, UniProt P28635)", "sequence (P28635 23-271)": "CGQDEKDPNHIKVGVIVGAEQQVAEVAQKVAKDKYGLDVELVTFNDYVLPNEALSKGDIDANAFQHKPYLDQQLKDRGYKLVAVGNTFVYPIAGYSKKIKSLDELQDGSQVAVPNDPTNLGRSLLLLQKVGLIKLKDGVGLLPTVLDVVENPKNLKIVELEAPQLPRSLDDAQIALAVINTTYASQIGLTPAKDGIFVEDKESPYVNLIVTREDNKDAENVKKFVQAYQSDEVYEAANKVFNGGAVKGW", "sequence (P30750 whole entry, further chain)": "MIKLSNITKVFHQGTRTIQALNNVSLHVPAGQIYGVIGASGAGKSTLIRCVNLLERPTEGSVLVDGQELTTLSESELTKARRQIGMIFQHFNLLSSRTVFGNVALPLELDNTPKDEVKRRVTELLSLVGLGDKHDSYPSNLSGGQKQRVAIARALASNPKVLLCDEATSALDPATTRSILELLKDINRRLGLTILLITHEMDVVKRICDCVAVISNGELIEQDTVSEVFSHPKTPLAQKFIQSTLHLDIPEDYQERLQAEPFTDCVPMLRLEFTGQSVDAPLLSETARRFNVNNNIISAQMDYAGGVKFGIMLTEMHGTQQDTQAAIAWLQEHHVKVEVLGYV", "sequence (P31547 whole entry, further chain)": "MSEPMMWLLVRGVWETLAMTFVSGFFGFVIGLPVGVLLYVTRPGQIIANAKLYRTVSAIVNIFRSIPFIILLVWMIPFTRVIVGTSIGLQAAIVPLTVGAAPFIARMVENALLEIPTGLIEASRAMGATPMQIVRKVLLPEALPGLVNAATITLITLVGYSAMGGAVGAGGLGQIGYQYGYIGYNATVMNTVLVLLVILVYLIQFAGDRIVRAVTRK", "details": "very high affinity transporter in E. coli; cited from earlier work"}, "[8]": {"system": "lower affinity L-methionine transporter (metP)", "details": "lower affinity transporter in E. coli; cited from earlier work"}, "O-succinylsulfhydrylase": {"biological_target": "T2, O-succinylsulfhydrylase (Pseudomonas aeruginosa, UniProt P55218)", "T2 sequence (P55218 whole entry, looked up)": "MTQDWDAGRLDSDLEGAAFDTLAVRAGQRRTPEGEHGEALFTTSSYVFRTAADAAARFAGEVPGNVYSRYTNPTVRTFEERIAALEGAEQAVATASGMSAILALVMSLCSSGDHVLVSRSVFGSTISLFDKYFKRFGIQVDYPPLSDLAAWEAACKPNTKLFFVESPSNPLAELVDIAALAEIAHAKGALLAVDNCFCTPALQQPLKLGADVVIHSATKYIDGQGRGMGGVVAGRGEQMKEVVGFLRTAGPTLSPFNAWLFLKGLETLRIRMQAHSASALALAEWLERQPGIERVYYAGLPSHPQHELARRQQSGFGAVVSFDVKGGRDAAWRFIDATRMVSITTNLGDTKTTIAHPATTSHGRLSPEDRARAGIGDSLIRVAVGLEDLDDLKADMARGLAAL", "experiment": "In-vitro assays of O-succinylsulfhydrylase", "format": "biochemical", "description": "Low methionine production of the deletion mutants transformed with metZ may be due to the limitation of sulfide in the intracellular fraction (methods of increasing sulfide concentration are provided below). This is supported by the finding that the growth of the metBC deletion strain transformed with metZ was enhanced in M9 media in the presence of 2 mM sodium sulfide. […] Through directed evolution, it is possible to develop improved O-succinylsulfhydrylases with higher sulfide affinity and also higher activity."}, "MetK [9]": {"system": "MetK", "experiment": "MetK mutants radioactive assay in vitro ([methyl-14C]methionine to SAMe)", "format": "biochemical, E. coli", "details": "5 minute reaction time; C-terminal His tagged proteins unless untagged", "description": "The metK gene from E. coli (Accession number AP—003499 or BAE77005) was cloned and overexpressed with either an N-terminal or a C-terminal His tag in pET28b vector. Site directed mutagenesis was performed using the C-terminal His tagged metK clone to generate the desired mutants. Expression of the mutant MetK proteins was confirmed.\nThe MetK mutants were purified (using the C-terminal His tag) and assayed in vitro. The wild type C-terminal His-tagged MetK protein was used as a control. The mutants were assayed using a radioactive assay. The assay conditions were as follows: • Assay Mix: • 1.0 mL 0.5 M HEPES/KOH, pH 8.0 • 0.5 mL 1.0 M KCl • 0.2 mL 1.0 M MgCl2 • 1.0 mL 100 mM ATP (disodium salt, pH 8.0 with KOH) • 0.1 mL 50 mM methionine • 0.1 mL NEN [methyl-^14C]methionine • 6.6 mL H2O • 25 mM EDTA pH 8.0 stop for assays.\n45 μl of assay mix was added to an Eppendorf tube and 5 μL of enzyme (normalized data shown in Table 13. The reaction was incubated at room temperature (or 25° C.) for a desired period (1 to 10 minutes). The reaction was stopped with the addition of 150 μL of 25 mM EDTA. 100 μL of the reaction was spotted onto a 2.5 cm diameter Whatman P-81 phosphocellulose filter circle (labeled in pencil). The filters were washed with 3 L of distilled water, air-dried and placed in scintillation vials with aquasol. The emissions were counted using a window that extends from ^14C to about 0. Assay efficiency and quench levels were determined by adding a known amount of counts of pure ^14C-SAM and processing through the whole procedure. Backgrounds are typically<100 cpm (total counts ca. 10^5 cpm per reaction)."}, "MetK [10]": {"system": "MetK", "details": "literature reference; cited from earlier work"}, "[11]": {"details": "OAHS as substrate, 10 mM inhibitor"}}, "data": [{"molecule": "C[S+](CC[C@H](N)C(=O)O)C[C@H]1O[C@@H](n2cnc3c(N)ncnc32)[C@H](O)[C@@H]1O", "note": "(stereo partly drawn) [SAMe, S-adenosylmethionine]", "values": [{"measurement": "KT", "setting": "[1]", "result": "2 to 8", "unit": "µM"}, {"measurement": "KT", "setting": "[2]", "result": 3.3, "unit": "µM"}, {"measurement": "KT", "setting": "[3]", "result": 4.5, "unit": "µM"}, {"measurement": "KT", "setting": "[4]", "result": 8.9, "unit": "µM"}, {"measurement": "activity retained relative to absence of inhibitor", "setting": "[5]; OAHS as substrate, 5 mM inhibitor", "result": "approximately 72%"}, {"measurement": "activity retained relative to absence of inhibitor", "setting": "[5]; [11]", "result": "~21", "unit": "%"}, {"measurement": "activity retained relative to absence of inhibitor", "setting": "[5]; OSHS as substrate, 5 mM inhibitor", "result": 86, "unit": "%"}, {"measurement": "activity retained relative to absence of inhibitor", "setting": "[5]; OSHS as substrate, 10 mM inhibitor", "result": 19, "unit": "%"}]}, {"molecule": "CSCC[C@H](N)C(=O)O", "note": "[methionine]", "values": [{"measurement": "solubility", "setting": "physchem", "result": 375000, "unit": "µM"}, {"measurement": "solubility in water", "setting": "[6]", "result": 5.6, "unit": "g/100 mL"}, {"measurement": "Km", "setting": "[7]", "result": "0.1 to 0.13", "unit": "µM"}, {"measurement": "Km", "setting": "[8]", "result": "20 to 40", "unit": "µM"}, {"measurement": "inhibition of MetY", "setting": "[5]; 1 mM methionine", "result": "Some inhibition"}, {"measurement": "activity retained relative to absence of inhibitor", "setting": "[5]; [11]", "result": "about 50%"}, {"measurement": "activity retained relative to absence of inhibitor", "setting": "[5]; OAHS as substrate, 50 mM inhibitor", "result": "~19", "unit": "%"}, {"measurement": "activity retained relative to absence of inhibitor", "setting": "[5]; OAHS as substrate, 100 mM inhibitor", "result": "~9", "unit": "%"}, {"measurement": "activity retained relative to absence of inhibitor", "setting": "[5]; OSHS as substrate, 50 mM inhibitor", "result": 53, "unit": "%"}, {"measurement": "activity retained relative to absence of inhibitor", "setting": "[5]; OSHS as substrate, 100 mM inhibitor", "result": 31, "unit": "%"}]}, {"molecule": "O-succinylsulfhydrylase: O-succinylsulfhydrylase (EC 4.2.99.-) codified by metZ from Pseudomonas aeruginosa (protein, UniProt P55218 1-403, looked up) O-succinylhomoserine …: MTQDWDAGRLDSDLEGAAFDTLAVRAGQRRTPEGEHGEALFTTSSYVFRTAADAAARFAGEVPGNVYSRYTNPTVRTFEERIAALEGAEQAVATASGMSAILALVMSLCSSGDHVLVSRSVFGSTISLFDKYFKRFGIQVDYPPLSDLAAWEAACKPNTKLFFVESPSNPLAELVDIAALAEIAHAKGALLAVDNCFCTPALQQPLKLGADVVIHSATKYIDGQGRGMGGVVAGRGEQMKEVVGFLRTAGPTLSPFNAWLFLKGLETLRIRMQAHSASALALAEWLERQPGIERVYYAGLPSHPQHELARRQQSGFGAVVSFDVKGGRDAAWRFIDATRMVSITTNLGDTKTTIAHPATTSHGRLSPEDRARAGIGDSLIRVAVGLEDLDDLKADMARGLAAL", "values": [{"measurement": "sulfide affinity", "setting": "O-succinylsulfhydrylase", "result": "low sulfide affinity"}]}, {"molecule": "Lys 245 Met (protein, UniProt P0A817 2-384, looked up, variant K245M) S-adenosylmethionine synthase: AKHLFTSESVSEGHPDKIADQISDAVLDAILEQDPKARVACETYVKTGMVLVGGEITTSAWVDIEEITRNTVREIGYVHSDMGFDANSCAVLSAIGKQSPDINQGVDRADPLEQGAGDQGLMFGYATNETDVLMPAPITYAHRLVQRQAEVRKNGTLPWLRPDAKSQVTFQYDDGKIVGIDAVVLSTQHSEEIDQKSLQEAVMEEIIKPILPAEWLTSATKFFINPTGRFVIGGPMGDCGLTGRMIIVDTYGGMARHGGGAFSGKDPSKVDRSAAYAARYVAKNIVAAGLADRCEIQVSYAIGVAEPTSIMVETFGTEKVPSEQLTLLVREFFDLRPYGLIQMLDLLHPIYKETAAYGHFGREHFPWEKTDKAQLLRDAAGLK", "values": [{"measurement": "Activity (CPM SAMe/ μg purified protein/min)", "setting": "MetK [9]", "result": "2.5 CPM SAMe/ μg purified protein/min"}, {"measurement": "Expected Effect on SAMe synth: activity reduced / lower activity than WT", "setting": "MetK [10]", "result": "42,000 fold"}]}, {"molecule": "His 14 Asn (protein, UniProt P0A817 2-384, looked up, variant H14N) S-adenosylmethionine synthase: AKHLFTSESVSEGNPDKIADQISDAVLDAILEQDPKARVACETYVKTGMVLVGGEITTSAWVDIEEITRNTVREIGYVHSDMGFDANSCAVLSAIGKQSPDINQGVDRADPLEQGAGDQGLMFGYATNETDVLMPAPITYAHRLVQRQAEVRKNGTLPWLRPDAKSQVTFQYDDGKIVGIDAVVLSTQHSEEIDQKSLQEAVMEEIIKPILPAEWLTSATKFFINPTGRFVIGGPMGDCGLTGRKIIVDTYGGMARHGGGAFSGKDPSKVDRSAAYAARYVAKNIVAAGLADRCEIQVSYAIGVAEPTSIMVETFGTEKVPSEQLTLLVREFFDLRPYGLIQMLDLLHPIYKETAAYGHFGREHFPWEKTDKAQLLRDAAGLK", "values": [{"measurement": "Activity (CPM SAMe/ μg purified protein/min)", "setting": "MetK [9]", "result": "7.7 CPM SAMe/ μg purified protein/min"}, {"measurement": "Expected Effect on SAMe synth: activity reduced / lower activity than WT", "setting": "MetK [10]", "result": "Activity reduced ~ 104 fold"}]}, {"molecule": "Asp 16 Asn (protein, UniProt P0A817 2-384, looked up, variant D16N) S-adenosylmethionine synthase: AKHLFTSESVSEGHPNKIADQISDAVLDAILEQDPKARVACETYVKTGMVLVGGEITTSAWVDIEEITRNTVREIGYVHSDMGFDANSCAVLSAIGKQSPDINQGVDRADPLEQGAGDQGLMFGYATNETDVLMPAPITYAHRLVQRQAEVRKNGTLPWLRPDAKSQVTFQYDDGKIVGIDAVVLSTQHSEEIDQKSLQEAVMEEIIKPILPAEWLTSATKFFINPTGRFVIGGPMGDCGLTGRKIIVDTYGGMARHGGGAFSGKDPSKVDRSAAYAARYVAKNIVAAGLADRCEIQVSYAIGVAEPTSIMVETFGTEKVPSEQLTLLVREFFDLRPYGLIQMLDLLHPIYKETAAYGHFGREHFPWEKTDKAQLLRDAAGLK", "values": [{"measurement": "Activity (CPM SAMe/ μg purified protein/min)", "setting": "MetK [9]", "result": "2.5 CPM SAMe/ μg purified protein/min"}, {"measurement": "Expected Effect on SAMe synth: kcat reduction", "setting": "MetK [10]", "result": "kcat reduction of ~ 103 fold"}]}, {"molecule": "Asp 271 Ala (protein, UniProt P0A817 2-384, looked up, variant D271A) S-adenosylmethionine synthase: AKHLFTSESVSEGHPDKIADQISDAVLDAILEQDPKARVACETYVKTGMVLVGGEITTSAWVDIEEITRNTVREIGYVHSDMGFDANSCAVLSAIGKQSPDINQGVDRADPLEQGAGDQGLMFGYATNETDVLMPAPITYAHRLVQRQAEVRKNGTLPWLRPDAKSQVTFQYDDGKIVGIDAVVLSTQHSEEIDQKSLQEAVMEEIIKPILPAEWLTSATKFFINPTGRFVIGGPMGDCGLTGRKIIVDTYGGMARHGGGAFSGKDPSKVARSAAYAARYVAKNIVAAGLADRCEIQVSYAIGVAEPTSIMVETFGTEKVPSEQLTLLVREFFDLRPYGLIQMLDLLHPIYKETAAYGHFGREHFPWEKTDKAQLLRDAAGLK", "values": [{"measurement": "Activity (CPM SAMe/ μg purified protein/min)", "setting": "MetK [9]", "result": "0.4 (not duplicated) CPM SAMe/ μg purified protein/min"}, {"measurement": "Expected Effect on SAMe synth: kcat reduction", "setting": "MetK [10]", "result": "kcat reduction of ~ 103 fold"}]}]}
